Assay results taken from article PMC7898037, “Improving mitochondria and ER stability helps eliminate upper motor neuron degeneration that occurs due to mSOD1 toxicity and TDP‐43 pathology” (Clinical and Translational Medicine, 2021).
Several values for one entry are separate records, joined by “and”; a condition that tells them apart may be missing. Equal values may be shown once.

Experiments:
[1] = system: UMN apical dendrites of WT‐UeGFP mice; assay: UMN apical dendrites with vacuoles, WT‐UeGFP mice; type: in vivo
Procedure: (§1) hSOD1^G93A‐UeGFP, prpTDP‐43^A315T‐UeGFP and WT‐UeGFP mice were weighed and the required NU‐9 dose per weight was calculated (20 or 100 mg/kg), which was administered once daily by oral gavage, starting at postnatal day (P)60 and continuing until P120. Animals from the untreated group received the vehicle (NMP and olive oil) only. For oral administration purposes, 20 ga × 38 mm plastic feeding tubes were used (Instech Laboratories, Inc). The gavage tip was inserted into the mouth directly over the tongue and into the pharynx. While observing the swallowing reflex, the tip was safely and smoothly slid into the esophagus. Once the administration was completed, the gavage tip was pulled straight out.
(§2) Mice were deeply anesthetized using ketamine (90 mg/kg) with xylazine (10 mg/kg), and transcardially perfused with 4% PFA in PBS. The brains were removed intact and postfixed (4% PFA, overnight) and stored in PBS with sodium azide (0.01%) at 4°C. Sections were cut in a coronal (50 µm) plane using a vibratome (Leica) and processed for immunocytochemical analyses.
(§3) The antibodies used are as follows: anti‐GFP (1:1000, Invitrogen; or 1:1000, Abcam) and anti‐misfolded SOD1 (B8H10, 1:250, Médimabs). Briefly, sections were treated with blocking solution (PBS, 0.05% BSA, 2% FBS, 1% Triton X‐100, and 0.1% saponin) for 30 min at room temperature and incubated with primary antibody diluted in blocking solution overnight at 4°C. Appropriate secondary fluorescent antibodies (1:500, AlexaFluor‐conjugated, Invitrogen) were added to the blocking solution at room temperature for 2 h in the dark.

[2] = system: UMN apical dendrites of prpTDP‐43^A315T‐UeGFP mice; assay: UMN apical dendrites with vacuoles, prpTDP‐43^A315T‐UeGFP mice; type: in vivo
Procedure: as §1, §2, §3

[3] = system: prpTDP‐43^A315T‐UeGFP mice; assay: Hanging wire test (max 60 s), prpTDP‐43^A315T‐UeGFP mice; type: in vivo; conditions: for wire hanging, Predicted (LS) mean: prpTDP-43A315T-UeGFP (NU-9 100 mg/kg/day); for wire hanging, Average: prpTDP-43A315T-UeGFP, NU-9 100 mg/kg/day po
Procedure: as §1
(§4) Behavior data were collected from hSOD1^G93A‐UeGFP and WT‐UeGFP mice (starting at P60 and every 7 days until P116) and from prpTDP‐43^A315T‐UeGFP mice (at P60, P90, and P120) with the following number of mice for each group: WT‐UeGFP vehicle (n = 10), hSOD1^G93A‐UeGFP vehicle (n = 6), WT‐UeGFP 20 mg/kg/day NU‐9 (n = 5), hSOD1^G93A‐UeGFP 20 mg/kg/day NU‐9 (n = 7), WT‐UeGFP 100 mg/kg/day NU‐9 (n = 11), hSOD1^G93A‐UeGFP 100 mg/kg/day NU‐9 (n = 9), prpTDP‐43^A315T‐UeGFP untreated (n ≥ 3), and prpTDP‐43^A315T‐UeGFP 100 mg/kg/day NU‐9 (n = 4) (Table S3).
Mice were placed on a wire mesh, which was then inverted and suspended above the home cage; the time when the animal fell was recorded. This test was performed three times for a maximum of 60 s each session, with a 1‐min rest period between each trial. The average performance for each session is presented as the average of the three trials.

[4] = system: prpTDP‐43^A315T‐UeGFP mice; assay: Rotarod test, prpTDP‐43^A315T‐UeGFP mice; type: in vivo; conditions: for Rotarod, Predicted (LS) mean: prpTDP-43A315T-UeGFP (NU-9 100 mg/kg/day); for Rotarod, Average: prpTDP-43A315T-UeGFP, NU-9 100 mg/kg/day po
Procedure: as §1, §4
Mice were placed on a rotating rod that accelerates linearly from 4 to 40 rpm (Rotarod, Ugo Basile), and the average time spent on the rotating rod for three consecutive trials was calculated for each mouse. Mice were allowed to run for a maximum of 5 min with a 5 min rest period between each run, and the latency to fall was recorded for three consecutive trials. The average of the three trials was taken as the data point for each mouse at the age tested, and the performance of different groups are reported as the mean ± SEM.

[5] = system: Caco‐2; parameters: method as in PMID 22189273, PMID 22837812; conditions: cited from earlier work
[6] = cited from earlier work
[7] = cited from earlier work; remark: listed apart in the source
[8] = WT-UeGFP mice, NU-9 100 mg/kg/day

In the case of `C[C@H](Oc1cc(C(F)(F)F)cc(C(F)(F)F)c1)C1CC(=O)CC(=O)C1` [NU‐9], the “Mean, Fig. 4G (UMN apical dendrites with vacuoles)” value [1, 8] is reported as 16.43, the “Mean, Fig. 7E (UMN apical dendrites with vacuoles)” value [1, 8] is reported as 16.43 and the “Mean Diff., Fig. 7E, G vehicle vs. G NU-9 (100)” value ([1]; WT-UeGFP vehicle minus NU-9 100 mg/kg/day, Tukey's multiple comparisons test) is reported as 17.11. The “Mean Diff., Fig. 4G, G Vehicle vs. G NU-9 (100)” value ([1]; WT-UeGFP vehicle minus WT-UeGFP NU-9 100 mg/kg/day, Tukey's multiple comparisons test) was 11.77, the “percentage of UMN apical dendrites with vacuoles” value ([1]; WT‐UeGFP mice, 100 mg/kg/day oral gavage P60–P120) was 16% ± 5% and the “Mean Diff., Fig. 7E, GT Untreated vs. GT NU-9 (100)” value ([2]; prpTDP43A315T-UeGFP untreated minus NU-9 100 mg/kg/day, Tukey's multiple comparisons test) was 70.28. For the same molecule, the “Mean, Fig. 7E (UMN apical dendrites with vacuoles)” value ([2]; prpTDP-43A315T-UeGFP mice, NU-9 100 mg/kg/day) was 10.93, the “percentage of UMNs with vacuolated primary apical dendrites” value ([2]; prpTDP‐43^A315T‐UeGFP mice, 100 mg/kg/day oral gavage P60–P120) was 11% ± 1% and the “wire hanging, Predicted (LS) mean” value ([3]; P60, mixed-effects analysis) was 56.83. The “wire hanging, Predicted (LS) mean” value ([3]; P90, mixed-effects analysis) was 57.17, the “wire hanging, Predicted (LS) mean” value ([3]; P120, mixed-effects analysis) was 59.67 and the “wire hanging, Average” value ([3]; P60) was 55.7778. The “wire hanging, Average” value ([3]; P90) was 56.2222, the “wire hanging, Average” value ([3]; P120) was 59.5556 and the “hanging wire test, latency to fall” value ([3]; prpTDP‐43^A315T mice, 100 mg/kg/day, P120) was 59.5 ± 0.3 s. For the same molecule, the “Rotarod, Predicted (LS) mean” value ([4]; P60, mixed-effects analysis) was 260, the “Rotarod, Predicted (LS) mean” value ([4]; P90, mixed-effects analysis) was 216 and the “Rotarod, Predicted (LS) mean” value ([4]; P120, mixed-effects analysis) was 165.8. For the same molecule, the “Rotarod, Average” value ([4]; P60) was 267.889, the “Rotarod, Average” value ([4]; P90) was 232.556 and the “Rotarod, Average” value ([4]; P120) was 178.444. The “rotarod test, latency to fall” value ([4]; prpTDP‐43^A315T‐UeGFP mice, 100 mg/kg/day, after 30 days of treatment) was 232.6 ± 18.1 s, the “Caco‐2 A→B” value [5] was 24.1 × 10^–6 cm/s and the “Caco‐2 B→A” value [5] was 1.5 × 10^–6 cm/s. The “Caco‐2 Efflux ratio” value [5] was 0.06, the “plasma stability t 1/2” value [6] was over 2 h and the Brain penetration [7] was 8 µM and 8.3 µM. The “blood brain barrier crossing” value [7] was “crossed the blood brain barrier”, the “t 1/2” value ([7]; in vivo, mice) was 2.7 h and 2.73 h and the “Blood levels (t max)” value ([7]; ip, mice, dose 500 mg/kg) was 12 h (500 mg/kg). For the same molecule, the Oral bioavailability ([7]; mice) was 94%, the “CL (mouse)” value ([7]; mouse) was 44 mL/min/kg and the AUC ([7]; po) was 3452 h‐ng/ml po.
